The values that follow come from patent US9539312B2 (UNIVERSIDAD NACIONAL AUTÓNOMA DE MÉXICO, priority 2012, dated 2017).

Read-outs that look alike come from different tables or passages of the source. Where no end group is shown, it is not given here.

What is called Kd is the constant that tells how readily two partners part at equilibrium.

The conditions of data set [1]: phase II, cited from earlier work.
The target of data set [2] is T1, CETP (Homo sapiens, UniProt P11597).
T1 construct: host or cells: trial subjects' plasma (not described)
T1 sequence (P11597 18-493): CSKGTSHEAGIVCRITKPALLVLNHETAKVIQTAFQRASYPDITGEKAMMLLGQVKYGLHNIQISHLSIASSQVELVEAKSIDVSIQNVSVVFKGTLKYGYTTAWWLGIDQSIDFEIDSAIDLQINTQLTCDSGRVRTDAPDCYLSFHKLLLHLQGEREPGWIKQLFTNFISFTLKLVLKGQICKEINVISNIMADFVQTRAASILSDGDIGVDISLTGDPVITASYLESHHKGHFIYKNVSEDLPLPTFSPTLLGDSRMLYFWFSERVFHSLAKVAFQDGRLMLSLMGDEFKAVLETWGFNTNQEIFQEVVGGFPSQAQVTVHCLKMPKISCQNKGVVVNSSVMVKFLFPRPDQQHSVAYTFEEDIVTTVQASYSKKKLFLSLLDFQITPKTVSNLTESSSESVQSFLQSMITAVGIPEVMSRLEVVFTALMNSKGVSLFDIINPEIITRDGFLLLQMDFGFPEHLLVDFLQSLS
Particulars: phase II, group with the highest dose; cited from earlier work.

The conditions of data set [3]: phase III, treatment group receiving combination with atorvastatin; cited from earlier work.
The target in data set [4] is C-terminus peptide of CETP (Homo sapiens, UniProt P11597).
The conditions of data set [5]: pH 9.5.
The target in data set [6] is 10 nm-diameter nascent discoid HDL particles. Particulars: cited from earlier work.

As for `COc1cc(F)c(C(C)C)cc1-c1ccc(C(F)(F)F)cc1CN1C(=O)O[C@H](c2cc(C(F)(F)F)cc(C(F)(F)F)c2)[C@@H]1C` [Anacetrapib], the blood pressure entry in data set [1] (all cohorts) was “without the corresponding increase in blood pressure”. Besides, the “increase in HDL, average” value is given as 44% in data set [1] (dose 10 mg), 86% in data set [1] (dose 40 mg), 139% in data set [1] (dose 150 mg) and 133% in data set [1] (dose 300 mg).
Take `CCC(CC)CC1(C(=O)Nc2ccccc2SC(=O)C(C)C)CCCCC1` [Dalcetrapib]: in data set [2], the CETP activity decreased is recorded as 36% and the HDL cholesterol increased is on record as 34%.
Turning to `CCOC(=O)N1c2ccc(C(F)(F)F)cc2[C@@H](N(Cc2cc(C(F)(F)F)cc(C(F)(F)F)c2)C(=O)OC)C[C@H]1CC` [Torcetrapib], the “mortality and cardiovascular events” value in data set [3] was “cases of mortality and cardiovascular events”.
`CCCCCCCCCCCC(=O)OC[C@@H](O)COP(=O)([O-])OCC[N+](C)(C)C` [lysophosphatidylcholine (C12), 1-Lauril-2-Hydroxi-snglycero 3 phosphocholine]: in data set [4], the “secondary structure of the antigen peptide” value is given as “favored the presentation of the α-helix structure”.
In the case of CHLLVDFLQSLS [Y-helix], in data set [5], the “solubility and monomeric state of peptide” value is “allows solubility and keeps the peptide in monomeric state”.

B1: CETP: proatherogenic hydrophobic glycoprotein that transfers cholesteryl esters and triglycerides among lipoproteins (protein, UniProt P11597 18-493, looked up)
Cholesteryl ester transfer …: T1 sequence (P11597 18-493)
As for B1, the Kd in data set [6] was 20 to 120 nM.
